Experimental data taken from ChEMBL document CHEMBL1155511, “Discovery of a new potent bisamide FMS kinase inhibitor” (Bioorg Med Chem Lett, 2010).

Experiments:
[1] = target: Tyrosine-protein kinase ABL1 (Homo sapiens) (UniProt P00519); assay: Inhibition of ABL1 at 1 uM
[2] = target: ALK tyrosine kinase receptor (Homo sapiens) (UniProt Q9UM73); assay: Inhibition of ALK at 1 uM
[3] = target: Aurora kinase A (Homo sapiens) (UniProt O14965); assay: Inhibition of Aurora A at 1 uM
[4] = target: Tyrosine-protein kinase BTK (Homo sapiens) (UniProt Q06187); assay: Inhibition of BTK at 1 uM
[5] = target: Calcium/calmodulin-dependent protein kinase type 1 (Homo sapiens) (UniProt Q14012); assay: Inhibition of CamK1 at 1 uM
[6] = target: Cyclin-dependent kinase 5/CDK5 activator 1 (Homo sapiens) (UniProt Q00535+Q15078); assay: Inhibition of CDK5/p25 at 1 uM; assay type: protein-complex assay
[7] = target: Serine/threonine-protein kinase Chk1 (Homo sapiens) (UniProt O14757); assay: Inhibition of CHK1 at 1 uM
[8] = target: Mast/stem cell growth factor receptor Kit (Homo sapiens) (UniProt P10721); assay: Inhibition of cKIT1 at 1 uM
[9] = target: Proto-oncogene tyrosine-protein kinase Src (Homo sapiens) (UniProt P12931); assay: Inhibition of c-SRC at 1 uM
[10] = target: Epidermal growth factor receptor (Homo sapiens) (UniProt P00533); assay: Inhibition of EGFR at 1 uM
[11] = target: Ephrin type-A receptor 1 (Homo sapiens) (UniProt P21709); assay: Inhibition of EPHA1 at 1 uM
[12] = target: Fibroblast growth factor receptor 1 (Homo sapiens) (UniProt P11362); assay: Inhibition of FGFR1 at 1 uM
[13] = target: Receptor-type tyrosine-protein kinase FLT3 (Homo sapiens) (UniProt P36888); assay: Inhibition of FLT3 at 1 uM
[14] = target: Tyrosine-protein kinase Fyn (Homo sapiens) (UniProt P06241); assay: Inhibition of FYN at 1 uM
[15] = target: Glycogen synthase kinase-3 beta (Homo sapiens) (UniProt P49841); assay: Inhibition of GSK3-beta at 1 uM
[16] = target: Homeodomain-interacting protein kinase 2 (Homo sapiens) (UniProt Q9H2X6); assay: Inhibition of HIPK2 at 1 uM
[17] = target: Insulin-like growth factor 1 receptor (Homo sapiens) (UniProt P08069); assay: Inhibition of IGF1R at 1 uM
[18] = target: Inhibitor of nuclear factor kappa-B kinase subunit beta (Homo sapiens) (UniProt O14920); assay: Inhibition of IKK-beta at 1 uM
[19] = target: Insulin receptor (Homo sapiens) (UniProt P06213); assay: Inhibition of IR at 1 uM
[20] = target: Tyrosine-protein kinase JAK3 (Homo sapiens) (UniProt P52333); assay: Inhibition of JAK3 at 1 uM
[21] = target: Mitogen-activated protein kinase 8 (Homo sapiens) (UniProt P45983); assay: Inhibition of JNK1alpha1 at 1 uM
[22] = target: T1, Vascular endothelial growth factor receptor 2 (Homo sapiens, UniProt P35968); assay: Inhibition of KDR at 1 uM
[23] = target: Tyrosine-protein kinase Lck (Homo sapiens) (UniProt P06239); assay: Inhibition of LCK at 1 uM
[24] = target: Serine/threonine-protein kinase MARK1 (Homo sapiens) (UniProt Q9P0L2); assay: Inhibition of MARK1 at 1 uM
[25] = target: Dual specificity mitogen-activated protein kinase kinase 1 (Homo sapiens) (UniProt Q02750); assay: Inhibition of MEK1 at 1 uM
[26] = target: Mitogen-activated protein kinase kinase kinase 9 (Homo sapiens) (UniProt P80192); assay: Inhibition of MLK1 at 1 uM
[27] = target: Serine/threonine-protein kinase mTOR (Homo sapiens) (UniProt P42345); assay: Inhibition of mTOR at 1 uM
[28] = target: Ribosomal protein S6 kinase beta-1 (Homo sapiens) (UniProt P23443); assay: Inhibition of p70S6K at 1 uM
[29] = target: Serine/threonine-protein kinase PAK 2 (Homo sapiens) (UniProt Q13177); assay: Inhibition of PAK2 at 1 uM
[30] = target: [Pyruvate dehydrogenase (acetyl-transferring)] kinase isozyme 1, mitochondrial (Homo sapiens) (UniProt Q15118); assay: Inhibition of PDK1 at 1 uM
[31] = target: Serine/threonine-protein kinase pim-1 (Homo sapiens) (UniProt P11309); assay: Inhibition of PIM1 at 1 uM
[32] = Inhibition of PKA at 1 uM
[33] = Inhibition of PKBalpha; conditions: concentration not given here
[34] = target: Protein kinase C alpha type (Homo sapiens) (UniProt P17252); assay: Inhibition of PKCalpha at 1 uM
[35] = target: Serine/threonine-protein kinase PLK1 (Homo sapiens) (UniProt P53350); assay: Inhibition of PLK1 at 1 uM
[36] = target: Protein-tyrosine kinase 2-beta (Homo sapiens) (UniProt Q14289); assay: Inhibition of PYK2 at 1 uM
[37] = target: Proto-oncogene tyrosine-protein kinase receptor Ret (Homo sapiens) (UniProt P07949); assay: Inhibition of RET at 1 uM
[38] = target: Rho-associated protein kinase 1 (Homo sapiens) (UniProt Q13464); assay: Inhibition of ROCK1 at 1 uM
[39] = target: Proto-oncogene tyrosine-protein kinase ROS (Homo sapiens) (UniProt P08922); assay: Inhibition of ROS1 at 1 uM
[40] = target: Mitogen-activated protein kinase 14 (Homo sapiens) (UniProt Q16539); assay: Inhibition of SAPK2A at 1 uM
[41] = target: Tyrosine-protein kinase SYK (Homo sapiens) (UniProt P43405); assay: Inhibition of SYK at 1 uM
[42] = target: Tyrosine-protein kinase Tec (Homo sapiens) (UniProt P42680); assay: Inhibition of TEC at 1 uM
[43] = target: Ribosomal protein S6 kinase alpha-1 (Homo sapiens) (UniProt Q15418); assay: Inhibition of RSK1 at 1 uM
[44] = target: T2, Macrophage colony-stimulating factor 1 receptor (Homo sapiens, UniProt P07333); assay: Inhibition of FMS
[45] = target: T1, Vascular endothelial growth factor receptor 2; assay: Inhibition of KDR
[46] = target: T2, Macrophage colony-stimulating factor 1 receptor; assay: Inhibition of FMS at 1 uM

T2 sequence (P07333 whole entry, looked up): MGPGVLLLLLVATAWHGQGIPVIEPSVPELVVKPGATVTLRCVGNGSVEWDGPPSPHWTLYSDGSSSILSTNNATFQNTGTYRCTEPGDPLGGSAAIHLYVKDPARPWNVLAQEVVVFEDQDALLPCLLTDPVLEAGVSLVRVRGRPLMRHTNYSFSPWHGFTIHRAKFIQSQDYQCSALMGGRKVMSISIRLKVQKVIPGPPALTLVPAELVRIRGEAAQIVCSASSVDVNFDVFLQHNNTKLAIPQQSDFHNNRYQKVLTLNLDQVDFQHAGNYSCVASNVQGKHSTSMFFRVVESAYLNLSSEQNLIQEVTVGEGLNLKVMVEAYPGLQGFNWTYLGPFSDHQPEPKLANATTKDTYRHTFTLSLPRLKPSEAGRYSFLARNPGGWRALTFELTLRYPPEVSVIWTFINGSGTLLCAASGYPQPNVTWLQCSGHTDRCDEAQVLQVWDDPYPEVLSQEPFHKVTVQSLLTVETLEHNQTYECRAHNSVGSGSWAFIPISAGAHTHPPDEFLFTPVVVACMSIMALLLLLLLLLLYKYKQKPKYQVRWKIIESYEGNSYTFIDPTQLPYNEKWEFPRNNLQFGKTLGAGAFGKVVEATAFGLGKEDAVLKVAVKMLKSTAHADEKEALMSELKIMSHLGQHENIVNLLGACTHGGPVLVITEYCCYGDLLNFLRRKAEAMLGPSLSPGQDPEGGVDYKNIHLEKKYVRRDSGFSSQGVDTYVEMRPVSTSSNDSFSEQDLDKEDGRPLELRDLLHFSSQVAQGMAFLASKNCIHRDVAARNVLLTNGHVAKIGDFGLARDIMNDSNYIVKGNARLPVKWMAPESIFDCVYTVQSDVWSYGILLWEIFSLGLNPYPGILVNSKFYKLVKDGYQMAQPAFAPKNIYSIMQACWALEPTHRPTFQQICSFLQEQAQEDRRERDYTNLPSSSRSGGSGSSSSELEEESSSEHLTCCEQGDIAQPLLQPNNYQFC
T1 sequence (P35968 whole entry): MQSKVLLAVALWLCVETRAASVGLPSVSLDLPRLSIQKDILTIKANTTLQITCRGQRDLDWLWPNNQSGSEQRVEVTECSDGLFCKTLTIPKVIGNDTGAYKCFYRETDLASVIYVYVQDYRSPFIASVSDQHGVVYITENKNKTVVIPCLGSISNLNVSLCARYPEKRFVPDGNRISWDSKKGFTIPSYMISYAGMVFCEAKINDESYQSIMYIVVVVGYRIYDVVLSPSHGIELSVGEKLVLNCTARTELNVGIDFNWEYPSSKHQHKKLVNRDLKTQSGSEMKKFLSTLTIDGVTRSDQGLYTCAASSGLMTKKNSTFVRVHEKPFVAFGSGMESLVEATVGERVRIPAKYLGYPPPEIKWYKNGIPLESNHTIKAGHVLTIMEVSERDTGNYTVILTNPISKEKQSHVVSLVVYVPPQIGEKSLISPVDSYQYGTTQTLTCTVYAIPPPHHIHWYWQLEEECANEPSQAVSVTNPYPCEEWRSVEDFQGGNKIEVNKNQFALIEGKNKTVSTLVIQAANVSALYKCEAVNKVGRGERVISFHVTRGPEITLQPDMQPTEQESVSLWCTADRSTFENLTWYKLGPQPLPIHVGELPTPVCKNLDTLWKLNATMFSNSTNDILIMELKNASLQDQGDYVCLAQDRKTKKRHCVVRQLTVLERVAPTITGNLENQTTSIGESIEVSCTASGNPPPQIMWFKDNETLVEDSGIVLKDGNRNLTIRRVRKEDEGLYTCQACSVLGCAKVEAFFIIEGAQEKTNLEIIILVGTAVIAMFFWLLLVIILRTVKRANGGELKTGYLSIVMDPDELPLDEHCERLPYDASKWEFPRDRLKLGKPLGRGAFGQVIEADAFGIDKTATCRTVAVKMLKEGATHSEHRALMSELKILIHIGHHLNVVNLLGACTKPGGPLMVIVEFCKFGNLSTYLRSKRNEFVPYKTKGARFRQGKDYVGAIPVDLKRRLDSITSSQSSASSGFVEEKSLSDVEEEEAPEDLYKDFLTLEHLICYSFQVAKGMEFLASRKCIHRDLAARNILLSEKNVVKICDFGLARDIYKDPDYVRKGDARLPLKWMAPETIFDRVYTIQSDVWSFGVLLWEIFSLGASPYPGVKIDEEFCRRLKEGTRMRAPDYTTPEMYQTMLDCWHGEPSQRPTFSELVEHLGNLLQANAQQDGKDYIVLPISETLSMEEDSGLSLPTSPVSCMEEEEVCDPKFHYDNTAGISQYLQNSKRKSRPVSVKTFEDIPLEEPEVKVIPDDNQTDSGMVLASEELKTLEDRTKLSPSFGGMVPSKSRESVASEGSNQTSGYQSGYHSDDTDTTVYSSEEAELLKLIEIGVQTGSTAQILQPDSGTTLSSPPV
Tyrosine-protein kinase Fyn (Homo sapiens), sequence (P06241 2-537 limits assumed): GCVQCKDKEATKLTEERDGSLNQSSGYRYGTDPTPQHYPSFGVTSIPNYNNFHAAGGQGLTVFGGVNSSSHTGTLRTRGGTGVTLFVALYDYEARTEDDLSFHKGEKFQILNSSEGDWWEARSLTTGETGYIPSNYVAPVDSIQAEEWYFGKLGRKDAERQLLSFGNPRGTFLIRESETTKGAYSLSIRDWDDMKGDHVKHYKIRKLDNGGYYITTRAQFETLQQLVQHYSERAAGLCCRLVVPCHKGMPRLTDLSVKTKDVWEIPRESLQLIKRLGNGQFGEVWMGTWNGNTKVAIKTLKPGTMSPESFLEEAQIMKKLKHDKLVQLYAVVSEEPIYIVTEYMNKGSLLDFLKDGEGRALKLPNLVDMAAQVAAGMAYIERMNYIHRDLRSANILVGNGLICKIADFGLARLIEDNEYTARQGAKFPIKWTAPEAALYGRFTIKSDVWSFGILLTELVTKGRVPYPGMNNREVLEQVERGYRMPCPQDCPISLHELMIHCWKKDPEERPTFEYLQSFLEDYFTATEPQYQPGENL
Serine/threonine-protein kinase MARK1 (Homo sapiens), sequence (Q9P0L2 whole entry, looked up): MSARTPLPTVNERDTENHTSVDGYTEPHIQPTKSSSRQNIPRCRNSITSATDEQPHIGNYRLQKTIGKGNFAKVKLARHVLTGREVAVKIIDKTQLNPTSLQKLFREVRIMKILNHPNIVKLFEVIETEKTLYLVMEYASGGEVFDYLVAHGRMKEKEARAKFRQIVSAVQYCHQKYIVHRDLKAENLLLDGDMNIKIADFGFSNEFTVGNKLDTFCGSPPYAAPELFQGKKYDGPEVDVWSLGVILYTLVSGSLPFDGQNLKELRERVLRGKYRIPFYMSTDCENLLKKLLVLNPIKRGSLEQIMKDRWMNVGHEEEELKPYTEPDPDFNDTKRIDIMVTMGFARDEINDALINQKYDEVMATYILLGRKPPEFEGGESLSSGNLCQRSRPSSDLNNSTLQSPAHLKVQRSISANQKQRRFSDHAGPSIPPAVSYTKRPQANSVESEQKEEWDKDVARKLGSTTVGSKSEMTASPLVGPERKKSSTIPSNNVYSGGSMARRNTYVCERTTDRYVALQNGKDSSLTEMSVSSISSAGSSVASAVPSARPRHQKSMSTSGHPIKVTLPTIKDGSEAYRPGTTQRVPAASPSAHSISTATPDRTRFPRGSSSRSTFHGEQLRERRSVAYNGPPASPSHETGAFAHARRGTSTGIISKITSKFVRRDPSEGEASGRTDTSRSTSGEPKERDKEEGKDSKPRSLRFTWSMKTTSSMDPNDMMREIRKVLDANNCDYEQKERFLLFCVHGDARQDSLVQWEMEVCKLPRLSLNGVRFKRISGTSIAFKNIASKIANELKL
Proto-oncogene tyrosine-protein kinase Src (Homo sapiens), sequence (P12931 2-536 limits assumed): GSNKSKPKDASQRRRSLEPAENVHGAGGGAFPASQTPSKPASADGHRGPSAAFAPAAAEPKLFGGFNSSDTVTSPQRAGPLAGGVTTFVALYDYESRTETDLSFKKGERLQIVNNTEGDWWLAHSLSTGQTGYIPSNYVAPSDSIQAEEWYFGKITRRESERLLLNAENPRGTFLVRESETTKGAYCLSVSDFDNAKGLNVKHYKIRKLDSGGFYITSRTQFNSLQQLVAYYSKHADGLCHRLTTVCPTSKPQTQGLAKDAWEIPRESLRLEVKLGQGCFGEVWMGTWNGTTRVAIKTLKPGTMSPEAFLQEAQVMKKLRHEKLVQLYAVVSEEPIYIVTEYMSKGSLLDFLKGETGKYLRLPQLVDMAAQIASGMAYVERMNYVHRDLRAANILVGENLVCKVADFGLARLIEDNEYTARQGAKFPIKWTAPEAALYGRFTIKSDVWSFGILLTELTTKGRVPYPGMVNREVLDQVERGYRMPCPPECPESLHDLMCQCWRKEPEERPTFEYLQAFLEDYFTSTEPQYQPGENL
Glycogen synthase kinase-3 beta (Homo sapiens), sequence (P49841 whole entry, looked up): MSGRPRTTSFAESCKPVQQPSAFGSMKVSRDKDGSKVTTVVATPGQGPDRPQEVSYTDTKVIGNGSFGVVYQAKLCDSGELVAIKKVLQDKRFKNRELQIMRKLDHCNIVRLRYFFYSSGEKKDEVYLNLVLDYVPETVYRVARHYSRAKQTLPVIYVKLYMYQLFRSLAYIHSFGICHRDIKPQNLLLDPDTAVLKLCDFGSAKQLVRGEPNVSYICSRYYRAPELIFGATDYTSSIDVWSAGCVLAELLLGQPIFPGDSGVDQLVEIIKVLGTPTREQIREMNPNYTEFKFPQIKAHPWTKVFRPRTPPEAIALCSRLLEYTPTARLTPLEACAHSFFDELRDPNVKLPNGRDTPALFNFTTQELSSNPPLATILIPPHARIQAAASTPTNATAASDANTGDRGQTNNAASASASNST
Mitogen-activated protein kinase 8 (Homo sapiens), sequence (P45983 whole entry): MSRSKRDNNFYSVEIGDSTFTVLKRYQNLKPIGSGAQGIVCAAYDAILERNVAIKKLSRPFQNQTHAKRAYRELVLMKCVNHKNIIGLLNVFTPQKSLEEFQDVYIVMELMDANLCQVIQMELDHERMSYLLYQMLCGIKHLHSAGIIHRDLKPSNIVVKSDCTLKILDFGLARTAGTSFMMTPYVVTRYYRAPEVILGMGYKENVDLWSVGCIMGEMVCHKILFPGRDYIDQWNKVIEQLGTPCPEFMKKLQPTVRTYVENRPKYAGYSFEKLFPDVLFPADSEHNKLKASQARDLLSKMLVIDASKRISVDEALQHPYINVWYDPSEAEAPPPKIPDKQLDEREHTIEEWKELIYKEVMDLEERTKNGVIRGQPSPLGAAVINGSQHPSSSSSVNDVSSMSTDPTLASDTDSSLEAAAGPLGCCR

## O=C(Nc1cccc(-n2ccc3c(NC(=O)c4ccccc4)nccc32)c1)c1ccc(N2CCOCC2)c(C(F)(F)F)c1
[1]
  inhibition: 41%
[2]
  inhibition: 11%
[3]
  inhibition: 21%
[4]
  inhibition: 7%
[5]
  inhibition: -1%
[6]
  inhibition: 8%
[7]
  inhibition: -8%
[8]
  inhibition: -2%
[9]
  inhibition: 10%
[10]
  inhibition: 1%
[11]
  inhibition: 9%
[12]
  inhibition: 6%
[13]
  inhibition: 16%
[14]
  inhibition: 44%
[15]
  inhibition: 4%
[16]
  inhibition: 9%
[17]
  inhibition: 10%
[18]
  inhibition: 23%
[19]
  inhibition: 2%
[20]
  inhibition: 17%
[21]
  inhibition: -1%
[22]
  inhibition: 71%
[23]
  inhibition: 33%
[24]
  inhibition: -9%
[25]
  inhibition: 12%
[26]
  inhibition: -1%
[27]
  inhibition: -10%
[28]
  inhibition: 7%
[29]
  inhibition: 2%
[30]
  inhibition: -1%
[31]
  inhibition: 10%
[32]
  inhibition: 16%
[33]
  inhibition: 18%
[34]
  inhibition: -5%
[35]
  inhibition: 4%
[36]
  inhibition: 23%
[37]
  inhibition: 57%
[38]
  inhibition: 3%
[39]
  inhibition: 19%
[40]
  inhibition: 25%
[41]
  inhibition: 6%
[42]
  inhibition: 14%
[43]
  inhibition: 8%
[44]
  IC50: 96 nM
[45]
  IC50: 1060 nM
[46]
  inhibition: 90%
